Patent US20240207299A1, “PYRROLOPYRIMIDINE NUCLEOSIDES FOR TREATING OR PREVENTING A SARS-COV-2 INFECTION” (Chimerix, Inc., priority 2021, published 2024)
Several values for one entry are separate records, joined by “and”; a condition that tells them apart may be missing. Identical values can stand only once. Entries after “also recorded” stand apart in the source; their conditions may differ. Like-named read-outs stand apart in the source and are kept apart here.

Key:
[1] = test system: Murine hepatitis virus (MHV) strain MHV-A59 (nLuc reporter); test: microbe, parasite or virus in culture; assay type: cell-based; details: Murine coronavirus
[2] = Genotoxicity / mitotoxicity
[3] = individual animals; for Plasma Compound 1 Concentration: 5 mg delivered dose, aerosol, single dose
[4] = Cytotoxicity, neutral red, Caco2 cells; assay type: cell-based; details: human, read-out: CC50: 50% cytotoxic concentration of compound without virus added
Procedure: Virus yield reduction assay in Caco-2 cells: The virus yield reduction (VYR) assay set up was similar to that described for the neutral red assay excepting Caco2 cells were used. On day 3 post-infection, cell culture supernatant from wells was collected and infectious virus determined by running a standard endpoint dilution CCID50 assay. Compound dilution that reduced virus yield by 1 log10 was calculated. After collection of cell culture supernatant from wells on day 3 post-infection, plates were stained as described in the neutral red assay to determine CC50 in Caco2 cells.

uninfected cells = test: Cytotoxicity in uninfected cells, Sigma TOX7 LDH release; assay type: cell-based; details: any concentration
Procedure: For each assay, percent inhibition was calculated by comparing luciferase activity in cells treated with compound to that in cells treated with vehicle (DMSO) control. Cells were treated with 2.5 μM remdesivir as a control where indicated. Cytotoxicity was measured in uninfected cells in parallel assays using the Sigma TOX7 assay for LDH release.

WIV1 = test: microbe, parasite or virus in culture; assay type: cell-based, bat-derived SARS-like coronavirus; details: HAE cells
[5] = Tolerability of single inhaled aerosol dose in healthy BALB/c mice; assay type: in vivo; details: 5 mg aerosol single dose; dosing period and 8-hour post-dose period
Procedure: Tolerability and pharmacokinetics (PK) of a single dose of Compound 1 delivered as aerosol via nebulized liquid in a flow-past pie-chamber model to healthy BALB/c mice. Compound 1 and Compound 60 concentrations were evaluated in plasma and lung tissue were determined.
Nine female, 9-11 week old BALB/c mice were housed in 9 individual wedges of the inhalation device described above. The input holes of the remaining 3 wedges were taped off to maximize delivery to the 9 mice. A liquid formulation of 5 mg/mL Compound 1 (pH 6.0) was prepared immediately prior to dosing and dispensed into the compressor chamber. The entire contents (9 mL) of the formulation solution were aerosolized and delivered to the 9 mice over a period of 20-30 min. This method delivered 5 mg Compound 1 to each wedge containing a single mouse over the period of nebulization.
Mice were monitored for adverse clinical signs with special attention given to signs related to eye irritation.

[6] = test system: SARS-CoV-2 strain USA-WA1 2020 (nLuc reporter); test: microbe, parasite or virus in culture; assay type: cell-based
[7] = Cytotoxicity without virus, neutral red, Vero E6 cells; assay type: cell-based; details: African green monkey; Neutral Red in Vero E6 cells; read-out: CC50: 50% cytotoxic concentration of compound without virus added
Procedure: Neutral red assay in Vero E6 cells: Compound dilutions were added to 96-well plates containing 80-100% confluent Vero E6 cells. Cells were incubated with compound for 1-2 hours and then infected with virus at a low MOI to achieve >80% cytopathic effect (CPE) within 5 days of incubation. On day 3 post-infection, CPE was quantitated by neutral red staining. Briefly cells were stained with neutral red for 2 hours, dye removed, and wells rinsed with PBS. The incorporated dye was extracted in Sorensen citrate buffer/ethanol (50:50) and absorbance measured on a spectrophotometer at 540 nm. Compound dilution that reduced virus CPE by 50% (EC50) was calculated along with cytotoxicity in the absence of virus infection (CC50).

[8] = test system: SARS-CoV-2 (USA-WA1/2020); test: microbe, parasite or virus in culture; assay type: cell-based; details: Severe acute respiratory syndrome coronavirus 2, Caco-2, 72 h, read-out: EC90: Calculated concentration to reduce virus yield by 1 log (90%) (converted)
in vivo = details: female, BALB/c, mouse, 5 mg
SARS-CoV-2 [9] = test: hACE2 transgenic mouse model of SARS-CoV-2 disease; assay type: in vivo, human ACE2 transgenic mouse; details: 50 mg/kg once per day intraperitoneal, Day 5
[10] = test system: SARS-CoV-2 (USA-WA1/2020); test: Neutral red CPE assay in Vero E6 cells; assay type: cell-based; details: for EC50: Severe acute respiratory syndrome coronavirus 2, Vero C1008, 72 h, read-out: EC50: 50% effective antiviral concentration
Oral GLP toxicology = details: rats/dogs
[11] = Healthy volunteer Phase 1 study of oral Compound 1; details: healthy volunteers
SHC014 = test: microbe, parasite or virus in culture; assay type: cell-based, bat-derived SARS-like coronavirus; details: HAE cells
SARS-CoV-2 [12] = details: MRC5 cells; cited from earlier work
[13] = 5 mg Compound 1 aerosol, 1 hr post-dose
[14] = 5 mg Compound 1 aerosol, 3 hr post-dose
[15] = Severe acute respiratory syndrome-related coronavirus, HAE
[16] = Mean Plasma Compound 1 Concentration
[17] = Plasma Compound 1 Concentration

With `Cc1nc(N)c2c(C(N)=O)cn([C@@H]3O[C@H](CO)[C@@H](O)[C@H]3O)c2n1` [Compound 1, 4-amino-7-((2R,3R,4S,5R)-3,4-dihydroxy-5-(hydroxymethyl)tetrahydrofuran-2-yl)-2-methyl-7H-pyrrolo[2,3-d]pyrimidine-5-carboxamide] the EC50 [1] was 380 nM, the genotoxicity / mitotoxicity [2] was “not genotoxic or mitotoxic” and the “Lung tissue Compound 1 concentration, Middle lobe” value [3, 13] was 1323 pmol/g and 988 pmol/g and 1061 pmol/g. The “Lung tissue Compound 1 concentration, PC lobe” value [3, 13] was 986 pmol/g and 673 pmol/g and 430 pmol/g, the “Lung tissue Compound 1 concentration, Superior lobe” value [3, 13] was 1867 pmol/g and 1219 pmol/g and 1212 pmol/g and the “Lung tissue Compound 1 concentration, Inferior lobe” value [3, 14] was 209 pmol/g and 93 pmol/g and 110 pmol/g. The “Lung tissue Compound 1 concentration, Left lobe” value [3, 14] was 106 pmol/g and 116 pmol/g and 140 pmol/g, the “Lung tissue Compound 1 concentration, Superior lobe” value [3, 14] was 398 pmol/g and 167 pmol/g and 305 pmol/g and the “Lung tissue Compound 1 concentration, Middle lobe” value ([3]; 5 mg Compound 1 aerosol, 8 hr post-dose) was 73 pmol/g and 137 pmol/g and 99 pmol/g. The “Plasma Compound 1 Concentration” value ([3]; 1 hr post-dose) was 39.1 ng/mL and 53.7 ng/mL, the “Plasma Compound 1 Concentration” value ([3]; 3 hr post-dose) was 20.8 ng/mL and 14.8 ng/mL and the “Plasma Compound 1 Concentration” value ([3]; 8 hr post-dose) was 15.4 ng/mL and 12.6 ng/mL. The CC50 at 3 days [4] was over 100000 nM, the “Effect on cell viability” value (uninfected cells) was “No effect on cell viability was seen at any concentration” and the EC50 (WIV1) was 1010 nM. For the same molecule, the EC50 (WIV1; [15]) was about 1000 nM, the “clinical signs of irritation or intolerability” value [5] was “No clinical signs of irritation or intolerability” and the EC50 ([6]; HAE cells donor code yellow, 8 point dose-response curve, read-out: EC50) was 940 nM. For the same molecule, the EC50 ([6]; Severe acute respiratory syndrome coronavirus 2, Epithelial cell, read-out: average EC50, SARS-CoV-2 replication) was 900 nM, the EC50 ([6]; Severe acute respiratory syndrome coronavirus 2, HAE, HAE cells donor code blue, 5 point dose-response curve, read-out: EC50) was 550 nM and the EC50 ([6]; Severe acute respiratory syndrome coronavirus 2, HAE, HAE cells donor code purple, 5 point dose-response curve, read-out: EC50) was 380 nM. For the same molecule, the EC50 ([6]; Severe acute respiratory syndrome coronavirus 2, HAE, HAE cells donor code yellow, 4 point dose-response curve, read-out: EC50) was 310 nM, the EC50 ([6]; Severe acute respiratory syndrome coronavirus 2, HAE, HAE cells donor code yellow, 5 point dose-response curve, read-out: EC50) was 160 nM and the EC50 ([6]; Severe acute respiratory syndrome coronavirus 2, HAE, HAE cells donor code yellow, 7 point dose-response curve, read-out: EC50) was 350 nM. For the same molecule, the EC50 ([6]; Severe acute respiratory syndrome coronavirus 2, HAE, HAE cells donor code yellow, 8 point dose-response curve, read-out: EC50) was 1100 nM, the EC50 ([6]; Severe acute respiratory syndrome coronavirus 2, HAE, mean of the HAE cell determinations, read-out: Mean SARS-CoV-2 EC50) was 540 nM and the EC50 ([6]; mean of the HAE cell determinations, read-out: Mean SARS-CoV-2 EC50) was 540 nM. For the same molecule, the CC50 at 3 days [7] was over 100000 nM, the EC90 [8] was 2100 nM and the Kp (in vivo) was about 20. It also gave a Kp at 8 h (in vivo) of about 12, a concentration at 1 h (in vivo; [16]) of 41.8 ng/mL and a concentration at 3 h (in vivo; [16]) of 18 ng/mL. The concentration at 8 h (in vivo; [16]) was 13.3 ng/mL, the concentration at 1 h (in vivo; [17]) was 32.5 ng/mL and the concentration at 3 h (in vivo; [17]) was 18.5 ng/mL. For the same molecule, the concentration at 8 h (in vivo; [17]) was 11.9 ng/mL, the “average Cq, virus genome in lungs (qPCR)” value (SARS-CoV-2 [9]; started 4-6 h after challenge, vehicle Cq 23) was 22 and the “effect on virus genome levels in lungs / efficacy” value (SARS-CoV-2 [9]) was “did not alter the virus genome levels detected in lungs; also recorded: not effective at inhibiting SARS-CoV-2”. The “Cq of one male mouse with lower than expected virus genome loads” value (SARS-CoV-2 [9]; likely failure of challenge or RNA recovery) was 38, the “SI: Selectivity Index (CC50/EC50)” value ([10]; Neutral Red in Vero E6 cells) was over 1.8 and the EC50 [10] was 56000 nM. For the same molecule, the toxicology profile (Oral GLP toxicology) was “favorable toxicology profile”, the generally well-tolerated dose [11] was “up to 2400 mg” and the EC50 (SHC014) was 980 nM. For the same molecule, the EC50 (SHC014; [15]) was about 1000 nM.

For `NC(=O)c1cn([C@@H]2O[C@H](CO)[C@@H](O)[C@H]2O)c2ncnc(N)c12` [Sangivamycin, reference compound], the CC50 at 3 days [4] was 120 nM, the CC50 at 3 days [7] was 10 nM and the EC90 [8] was 120 nM. The “SI: Selectivity Index (CC50/EC50)” value ([10]; Neutral Red in Vero E6 cells) was 1.9 and the EC50 ([10]; Neutral Red in Vero E6 cells, day 3 post-infection) was 7 nM.

In the case of `CNc1nc(N)nc2c1ncn2[C@@H]1O[C@H](COP(=O)(N[C@@H](C)C(=O)OC(C)C)Oc2ccccc2)[C@@H](O)[C@@]1(C)F.CNc1nc(N)nc2c1ncn2[C@@H]1O[C@H](COP(=O)(N[C@@H](C)C(=O)OC(C)C)Oc2ccccc2)[C@@H](O)[C@@]1(C)F.O=S(=O)(O)O` (stereo partly shown) [AT-527], the “antiviral activity against SARS-CoV-2” value (SARS-CoV-2 [12]) is listed as “lack of antiviral activity against SARS-CoV-2”.
